Test system: A549 cells
Assay: JC-1 staining, mitochondrial membrane integrity by flow cytometry
Assay type: cell-based, human
Conditions: 24 hours, IC50 concentrations
Description: After the active compounds were determined with the MTT assay, the determination of mitochondrial membrane integrity in A549 cells depending on IC50 concentrations were carried out in flow cytometry with BD, Pharmingen flow cytometry kit according to the manufacturer's recommendations. Briefly, the cells were seeded with optimal density (must not exceed 1×10^6 cell/mL). Following this, the cells were incubated with concentrations and time suitable for the compounds to be tested. After treatment, each cell suspension was transferred into a 15 mL polystyrene centrifuge tube and the cells were centrifuged at 400 × g for 5 minutes at room temperature, and supernatant was removed. Later, 0.5 mL freshly prepared working solution was added to each pellet and was vortexed. The cells were incubated in JC-1 working solution at 37 °C for 10-15 minutes and they were washed twice. In the first wash, 2 mL 1X assay buffer was added and the cells were precisely suspended. Following this, the cells were centrifuged at 400 × g for 5 minutes and the supernatant was removed carefully. In the next wash, 1 mL 1X assay buffer was added and was vortexed. After the cells were centrifuged at 400 × g for 5 minutes, each cell pellet was suspended in a 0.5 mL 1X assay buffer and was vortexed. Finally, the cell is analyzed with flow cytometry.

Row | SMILES | Mitochondrial membrane depolarized (P2) cells% [%] | Mitochondrial membrane polarized (P1) cells% [%]
1 | FC(F)(F)c1ccc(C2=Nn3c(CCc4ccc5c(c4)OCO5)nnc3SC2)cc1 [Compound 11, 3-[2-(1,3-Benzodioxole-5-yl)ethyl]-6-(4-trifluoromethylphenyl)-7H-[1,2,4]triazolo [3,4-b][1,3,4]thiadiazine] | 58.80 | 41.30
2 | Fc1cccc(C2=Nn3c(CCc4ccc5c(c4)OCO5)nnc3SC2)c1 [Compound 12, 3-[2-(1,3-Benzodioxole-5-yl)ethyl]-6-(3-fluorophenyl)-7H-[1,2,4]triazolo [3,4-b] [1,3,4]thiadiazine] | 47.00 | 53.00
3 | N.N.[Cl][Pt][Cl] [Cisplatin, reference compound] | 48.00 | 52.40
4 | c1ccc(-c2ccc(C3=Nn4c(CCc5ccc6c(c5)OCO6)nnc4SC3)cc2)cc1 [Compound 14, 3-[2-(1,3-Benzodioxole-5-yl)ethyl]-6-(biphenyl-4-yl)-7H-[1,2,4]triazolo[3,4-b] [1,3,4]thiadiazine] | 47.20 | 53.20
5 | CS(=O)(=O)c1ccc(C2=Nn3c(CCc4ccc5c(c4)OCO5)nnc3SC2)cc1 [Compound 9] | 8.80 | 91.10
